How the values were obtained:
[1] = Pharmacokinetic analysis in mice: plasma and brain levels after oral dose; assay type: in vivo, C57BL/6 mice; conditions: male, C57BL/6, mouse, 10 mg/kg, 10 mg/kg PO, Brain AUC(0-2h)/Plasma AUC(0-2h) or Brain Cmax/Plasma Cmax, read-out: ratio of brain/plasma concentration (B/P)
Protocol: Animals: Male, C57BL/6 mice (Jackson Labs, 25-30 g in body weight) are provided by Jackson Laboratories. Up to five mice are housed per cage and are maintained under a 12 hour light/dark cycle with access to food and water ad libitum. All procedures for the handling and use of animals follow the guidelines of the Institutional Animal Care and Use Committee (IACUC) of Columbia University, in accordance with NIH guidelines. Eight week-old mice (N=3/dose level or treatment group) are used in the experiments.
Experimental Treatment: Compounds: Selected Compounds of the Invention are evaluated in the present study. Formulation/Vehicle: 3% 1N HCl, 5% Labrasol and 92% of 5% TPGS in 0.05M Citrate buffer (CB, pH 4.0). The test compound(s) are prepared as solution in vehicle and are dosed in a volume of 8 ml/kg.
Compound Preparation: Powdered stocks of the test compound(s) are measured and dissolved in 3% 1N HCl, 5% Labrasol and 92% of 5% TPGS in 0.05M Citrate buffer (CB, pH 4.0). Two or three layers of 3 mm glass beads are added to the bottom of the 10 ml glass tube to promote mixing. […]
Treatment of Animals: Mice (N=3 mice/dose/time point) receive a 10 mg/kg oral (PO) dose of the test compound(s) at time 0. […] Plasma and brain tissue samples are processed and analyzed by the analytical group using LC-MS/MS methods, as described below. […]
Each tube is vortexed, then centrifuged for 20 min at 15000 rpm using a Tomy benchtop centrifuge at 4° C. Standard is an internal standard used for LC-MS/MS quantitation. […]
HPLC and Mass Spectrometric Analysis: Analysis to quantify the concentration of each compound in plasma and brain homogenate is carried out using reverse phase HPLC followed by mass spectrometric detection using the parameters listed:
Each compound is detected and quantified using Multiple Reaction Monitoring (MRM) of positive electrospray mode with a Waters QuattroMicro™ mass spectrometry system.
RESULTS: Plasma and Brain Analysis: All the test compound(s) tested could be detected and analyzed when spiked into control plasma. […]

[2] = tested on: TAC-induced hypertrophy; test: Transverse aortic constriction (TAC) mouse model of cardiac hypertrophy; assay type: in vivo, C59Bl/6 mice; conditions: for Terminal LV + S/TL Ratio (mean) (TAC ratio): day 1-28 post-surgery, left ventricle+septum weight/tibia length
Protocol: Animals: C59Bl/6 mice, 20-40 grams, Charles River (Portage, Mich.).
Test Compound of Example 2: Test compound of Example 2 is formulated. The test article dosing solutions are prepared by titrating the free base with 1 mole/mole dilute (0.02N) HCl and diluting the dissolved test compound in the vehicle (0.5% methylcellulose in distilled water) to a final concentration of 0.45 mg/mL and 1.5 mg/mL dosing solution. A supply of formulation for thirty days of dosing are prepared (day 1-6 for 1st surgical cohort).
Reference Test Compound—Losartan potassium: Losartan is obtained by CorDynamics, and prepared on the day of administration by dissolving in the vehicle (0.5% methylcellulose in distilled water) at concentration of 4.5 mg/mL dosing solution. The compound is agitated with a vortex mixer and sonicated to ensure the compound is in solution.
Transverse Aortic Constriction Surgery: Animals are anesthetized with isoflurane using a nose cone connected to a vaporizer that delivers 1-2% isoflurane driven by 100% oxygen. After initial anesthesia with isoflurane, mice receive 1 mg/kg Buprenex SR (1 mg/mL, s.c.) and 10 mg/kg of etomidate (2 mg/mL, i.p.). Animals are intubated for mechanical ventilation. The endotracheal tube is connected to a mechanical ventilator that provides positive-pressure ventilation with 1-2% isoflurane remainder oxygen, set to maintain ˜120 breaths/min with a tidal volume of ˜200 μL. Body temperature is monitored throughout the experiment.
A sternotomy is performed from the manubrium through the second or third rib in order to expose the aorta in the thoracic cavity. The aorta is cleaned of surrounding tissue and the transverse aorta clamped with a titanium microclip, the diameter similar to a 27 G needle. The transverse aorta from mice in Group 1 is cleaned of surrounding tissue but not clamped. The incision is closed, endotracheal tube is removed and animal is allowed to recover.
Mice are dosed twice daily with vehicle or the compound of Example 2 via oral administration with approximately 6 hours between each dose beginning at 1 day post-surgery. Mice are dosed once daily with losartan via oral administration. Body weights are taken after arrival, prior to surgery, prior to dosing on the first day of dosing and every third day of dosing for dose calculation purposes.
On day 28, echocardiographic measurements are performed for all experimental groups. Animals are anesthetized with isoflurane using a nose cone connected to a vaporizer that delivers 1-2% isoflurane driven by 100% oxygen. Mice are placed in the dorsal decubitus position on a warming platform to maintain body temperature at 37±0.5° C. Heart rate is monitored throughout the experiment. Transthoracic two-dimensional, B-mode, M-mode and pulsed Doppler images are acquired with a high-resolution echocardiographic system (VeVo 770, Visual Sonics, Toronto, ON, Canada) equipped with a 30-MHz mechanical transducer.
After echocardiographic measurements, animals are euthanized via CO2 asphyxiation. Hearts and lungs are harvested and gently infused with ice cold krebs-henseleit buffer (Sigma 3753) until clear. Lungs are weighed and the right and left lung are separated. The right and left lung are immediately frozen in liquid nitrogen and placed into separate tubes. The entire heart is weighed. The atria are removed and the left ventricle (with septum) is separated from the right ventricle. The ventricles are weighed separately before being divided into two pieces. Ventricle pieces are frozen in liquid nitrogen and placed into separate tubes. Liquid nitrogen samples are stored in a freezer set to maintain approximately −80° C. until shipped on dry ice to the Sponsor for possible future analysis.
The left tibia is removed and separated from the soft tissue. Longitudinal measurement will be obtained with a digital micrometer. The dissected tibia is disposed of with the rest of the carcass.

[3] = tested on: isoproterenol-induced cardiac hypertrophy; test: Isoproterenol induced cardiac hypertrophy mouse model; assay type: in vivo, 129S1/SvlmJ mice; conditions: for HW/TL Ratio (mean): isoproterenol 10 mg/kg s.c. days 4-9, heart weight/tibia length on day 10
Protocol: The compound of Example 2 is tested in a mouse model where the mice are treated with isoproterenol. Such a model can be useful for extrapolating to diseases or disorders involving an enlargement of the heart or cardiac tissue, e.g., congestive heart disease. Animals: 129S1/SvlmJ mice, 20-40 grams, Jackson Laboratories (Bar Harbor, Me.). Test Compound of Example 2: Test compound of Example 2 is supplied as a powder. The test article dosing solutions are prepared on the day of administration by dissolving the test compound in the vehicle (0.9% sodium chloride for injection, U.S.P.) at concentration of 2.0 mg/mL stock/dosing solution. The compound are agitated with a vortex mixer and sonicated to ensure the compound is in solution. The 2.0 mg/mL solution is diluted with vehicle to create the 0.2 mg/mL and the 0.6 mg/mL dosing solutions. Dosing solutions are stored in a refrigerator between the daily doses and are allowed to return to room temperature before the evening dose. Test Compound Isoproterenol: Test compound isoproterenol is supplied by Sigma (St. Louis, Mo.) as a powder. The test article dosing solutions are prepared on the day of administration by dissolving the test compound in the vehicle (0.9% sodium chloride for injection, U.S.P.) at concentration of 2.0 mg/mL. The compound is agitated with a vortex mixer and sonicated to ensure the compound is in solution. [table] Mice in group 1 and 2 are dosed daily via subcutaneous administration. On days 7, 10 and 14, 2 animals from groups 1 and 2 are weighed and then euthanized via CO2 asphyxiation. Hearts are harvested and gently infused with ice cold saline until clear. The entire heart is weighed. The atria are removed and the left ventricle (with septum) is separated from the right ventricle. The ventricles are weighed separately. The left tibia is removed and separated from the soft tissue. Longitudinal measurement are obtained with a digital micrometer. Mice in groups 3-6 are dosed once/day with isoproterenol subcutaneously from Days 4-9 and twice/day with vehicle or test compound via intraperitoneal administration from Days 1 to 9. On Day 10 (based on the results from Groups 1 and 2) animals from each group are weighed and then euthanized via CO2 asphyxiation. Hearts are harvested and gently infused with ice cold krebs-henseleit buffer (Sigma 3753) until clear. The entire heart is weighed. The atria are removed and the left ventricle (with septum) is separated from the right ventricle. The ventricles are weighed separately. The ventricles are stored in ice cold krebs-henseleit buffer for approximately 15 minutes and then transferred to 10% buffered formalin at room temperature until possible shipment for possible future analysis. The left tibia is removed and separated from the soft tissue. Longitudinal measurement is obtained with a digital micrometer.

Molecule CN1C(=O)c2c(nn(Cc3ccc(C(F)(F)F)cc3)c2Nc2ccccc2)N2C1=N[C@@H]1CCC[C@@H]12 [(6aR,9aS)-3-(phenylamino)-5,6a,7,8,9,9a-hexahydro-5-methyl-2-(4-(trifluoromethyl)-benzyl)-cyclopent[4,5]imidazo[1,2-a]pyrazolo[4,3-e]pyrimidin-4(2H)-one, reference compound] has a Kp [1] of 4.5 to 4.8.
Molecule CN1C(=O)c2c(nn(Cc3ccncc3)c2Nc2ccc(F)cc2)N2CC(C)(C)N=C12 [Example 1, 3-((4-fluorophenyl)amino)-5,7,7-trimethyl-2-(pyridin-4-ylmethyl)-7,8-dihydro-2H-imidazo[1,2-a]pyrazolo[4,3-e]pyrimidin-4(5H)-one] has a Kp [1] of at most 0.1.
In the case of Cc1ncc(Cn2nc3c(c2Nc2ccc(F)cc2)C(=O)N(C)C2=NC(C)(C)CN23)cn1 [Example 2, 3-((4-fluorophenyl)amino)-5,7,7-trimethyl-2-((2-methylpyrimidin-5-yl)methyl)-7,8-dihydro-2H-imidazo[1,2-a]pyrazolo[4,3-e]pyrimidin-4(5H)-one], the “effect on cardiac hypertrophy induced by the TAC constriction” value ([2]; 3 mg/kg) is reported as “tendency to reverse the cardiac hypertrophy”, the “Terminal LV + S/TL Ratio (mean) (TAC ratio)” value (from here on “Terminal LV + S/TL Ratio”) ([2]; 3 mg/kg oral twice/day) is reported as 5.8 mg/mm and the “effect on cardiac hypertrophy induced by the TAC constriction” value ([2]; 10 mg/kg) is reported as “tendency to reverse the cardiac hypertrophy”. The “Terminal LV + S/TL Ratio” value ([2]; 10 mg/kg oral twice/day) was 5.8 mg/mm, the “difference in TAC ratio between the sham group and the treated groups” value ([2]; sham vs compound groups) was “not statistically significant” and the “reduction in the heart weight/tibia length (HW/TL) ratio compared to vehicle” value ([3]; 1 mg/kg) was about 8%. For the same molecule, the HW/TL Ratio (mean) ([3]; 1 mg/kg twice/day days 1-9) was 8.49 mg/mm, the “decrease of (LV+RV)/TL ratio (left ventricle plus right ventricle weight/tibia length) compared to vehicle” value ([3]; 3 mg/kg) was 10% and the “prevention of cardiac hypertrophy” value ([3]; 3 mg/kg) was “significantly prevents cardiac hypertrophy”. For the same molecule, the “reduction in the heart weight/tibia length (HW/TL) ratio compared to vehicle” value ([3]; 3 mg/kg) was about 12.5%, the HW/TL Ratio (mean) ([3]; 3 mg/kg twice/day days 1-9) was 8.08 mg/mm and the “decrease of (LV+RV)/TL ratio (left ventricle plus right ventricle weight/tibia length) compared to vehicle” value ([3]; 10 mg/kg) was 10%. The “prevention of cardiac hypertrophy” value ([3]; 10 mg/kg) was “significantly prevents cardiac hypertrophy”, the “reduction in the heart weight/tibia length (HW/TL) ratio compared to vehicle” value ([3]; 10 mg/kg) was about 12.5% and the HW/TL Ratio (mean) ([3]; 10 mg/kg twice/day days 1-9) was 8.1 mg/mm. For the same molecule, the “effect on the development of isoproterenol-induced cardiac hypertrophy” value ([3]; up to 10 mg/kg) was “statistically significant effect”.
Molecule CN1C(=O)c2c(nn(Cc3ccc(S(N)(=O)=O)cc3)c2Nc2ccc(F)cc2)N2CC(C)(C)N=C12 [Example 7, 4-((3-((4-fluorophenyl)amino)-5,7,7-trimethyl-4-oxo-4,5,7,8-tetrahydro-2H-imidazo[1,2-a]pyrazolo[4,3-e]pyrimidin-2-yl)methyl)benzenesulfonamide] has a Kp [1] of under 0.05.
In the case of CCCCc1nc(Cl)c(CO)n1Cc1ccc(-c2ccccc2-c2nn[nH]n2)cc1 [Losartan, Losartan potassium, reference compound], the “Terminal LV + S/TL Ratio” value ([2]; 40 mg/kg (as printed in the results table) oral once/day) is reported as 6.2 mg/mm and the “difference in TAC ratio between the vehicle group and the treated group” value ([2]; vehicle vs Losartan group) is reported as “not statistically significant”.
